Entries after “also recorded” stand apart in the source; their conditions may differ. Marks after values point to notes of the source that are not given here.
What was measured:
[1] = Body composition, modified 4-component model (DXA + BIS), and body mass; type: in vivo, human; conditions: for FM (kg) Week 4 / FM (kg) Week 8: 4-component fat mass; for FFM (kg) Week 4 / FFM (kg) Week 8: 4-component fat-free mass; for BF % ES (d) / BM ES (d) / FFM ES (d) / FM ES (d): Cohen's d baseline vs week 8; for BM (kg) Week 4 / BM (kg) Week 8: body mass; for BF % Δ (%) / BM Δ (%) / FFM Δ (%) / FM Δ (%): change baseline to week 8 relative to baseline; for BM (kg) Δ / FFM (kg) Δ / FM (kg) Δ: week 8 minus baseline; for BF % Δ: week 8 minus baseline (absolute BF %)
Description: At baseline and after 4 and 8 weeks of the intervention, participants completed two testing sessions: (1) a morning assessment conducted after an overnight fast for assessment of body composition, metabolism, vascular measures and subjective factors: and (2) an afternoon assessment of muscular performance, conducted in the non-fasted state. For morning assessments, participants reported to the laboratory after abstention from eating, drinking, exercising and utilizing caffeine or nicotine for ≥8 hours. Participants were interviewed to confirm adherence to these pre-assessment restrictions. The actual abstention from exercise was ≥14 hours due to the scheduling of exercise sessions. Participants reported to the laboratory wearing athletic clothing, and all metal and accessories were removed from the body prior to testing. Each participant voided her bladder and provided a urine sample. Urine samples were assessed for urine specific gravity (USG) using a digital refractometer (PA201X-093. Misco, Solon, Ohio. USA). Additionally, a standard urinary HCG test was performed to confirm that each participant was not pregnant. Finally, urinary samples were frozen at −80° C. for assessment of urinary HMB content after study unblinding. After voiding, each participant's body mass (BM) and height were determined via digital scale with stadiometer (Seca 769, Hamburg, Germany). Blood draws were performed at Texas Tech University Student Health Services after an overnight fast, and participants completed at-home saliva collections for assessment of the cortisol awakening response (CAR).
Body composition was assessed using a modified 4-component (4C) model (20, 21) produced from dual-energy x-ray absorptiometry (DXA) and bioimpedance spectroscopy (BIS) data. DXA scans were performed on a Lunar Prodigy scanner (General Electric, Boston, Mass., USA) with enCORE software (v. 16.2). The scanner was calibrated using a quality control block each morning prior to use, and positioning of participants was conducted according to manufacturer recommendations. Each participant was able to fit within the scanning dimensions. DXA bone mineral content (BMC) was divided by 0.9582 to yield an estimate of bone mineral (Mo) (22). Additionally, body volume (BV) was estimated from DXA lean soft tissue (LST), fat mass (FM) and BMC using the equation developed by Wilson et al. for General Electric DXA scanners (20):
BIS was utilized to obtain total body water (TBW) estimates. BIS utilizes Cole modeling (23) and mixture theories (24) to predict body fluids rather than regression equations used by other impedance methods (e.g. bioelectrical impedance analysis (25)). The BIS device used in the present study (SFB7, ImpediMed. Carlsbad, Calif., USA) employs 256 measurement frequencies ranging from 4 to 1,000 kHz. Each participant remained supine for ≥5 minutes immediately prior to assessment using the manufacturer-recommended hand-to-foot electrode arrangement. Duplicate assessments were performed, with the values averaged for analysis. Assessments were reviewed for quality assurance through visual inspection of Cole plots.
The 4C equation of Wang et al. was utilized for estimation of whole-body FM (26):
FFM was calculated as BM−FM, and BF % was calculated as (FM/BM)×100.

[2] = Resting energy expenditure and substrate utilization (RQ) via indirect calorimetry; type: in vivo, human; conditions: for RMR Δ / RMR Δ (%) / RQ Δ / RQ Δ (%): baseline to W 8; for RMR ES (d) / RQ ES (d): effect size
Experimental: REE and substrate utilization were assessed via indirect calorimetry (TrueOne 2400. ParvoMedics, Sandy, Utah, USA). Gas and flow calibrations were performed each morning according to manufacturer specifications, and the pre-assessment procedures of Compher et al. (34) were utilized. Participants were instructed to remain motionless but awake during the assessment, which took place in a climate-controlled room with the lights dimmed. The first five minutes of each test were discarded, and the assessment continued until there was a period of 5 consecutive minutes with a coefficient of variation (CV) for REE of ≤5%. The average CV for REE in the present study was 3.2±1.1% (mean±SD).

[3] = ITT analysis, week 4, mean ± SE
[4] = ITT analysis, week 8, mean ± SE

CC(C)(O)CC(=O)O [TRFHMB, β-hydroxy-β-methylbutyrate]
Absolute effect size for BF % loss, TRFHMB relative to HMB only ([1]; 4 weeks): 2 fold
BF % Week 4 ([1]; ITT analysis, 4-component body fat percentage, week 4, mean ± SE): 27.1 ± 1.7%
BF % Week 8 ([1]; ITT analysis, 4-component body fat percentage, week 8, mean ± SE): 27.3 ± 1.6%
FM (kg) Week 4 [1, 3]: 17.5 ± 1.5 kg
FM (kg) Week 8 [1, 4]: 17.5 ± 1.5 kg
FFM (kg) Week 4 [1, 3]: 46.5 ± 1.4 kg
FFM (kg) Week 8 [1, 4]: 46.2 ± 1.3 kg
BF % ES (d) ([1]; ITT analysis): −0.25
BM ES (d) ([1]; ITT analysis): 0.08
FFM ES (d) ([1]; ITT analysis): 0.26
FM ES (d) ([1]; ITT analysis): −0.13
BM (kg) Week 4 [1, 3]: 63.9 ± 2.2 kg
BM (kg) Week 8 [1, 4]: 63.8 ± 2.1 kg
BF % Δ (%) ([1]; ITT analysis): −5%
BM Δ (%) ([1]; ITT analysis): 1%
FFM Δ (%) ([1]; ITT analysis): 3%
FM Δ (%) ([1]; ITT analysis): −4%
BM (kg) Δ ([1]; ITT analysis): 0.6 kg
FFM (kg) Δ ([1]; ITT analysis): 1.2 kg
FM (kg) Δ ([1]; ITT analysis): -0.7 kg
BF % Δ ([1]; ITT analysis): −1.4%
Fat mass change versus baseline (in words) ([1]; PP analysis): significant reductions; also recorded: lower at W8 than baseline
BF % Week 8 ([1]; PP analysis, 4-component body fat percentage, week 8, mean ± SE): 26.8 ± 2.6^b %
FM (kg) Week 4 ([1]; PP analysis, week 4, mean ± SE): 17.5 ± 2.5 kg
FM (kg) Week 8 ([1]; PP analysis, week 8, mean ± SE): 17.3 ± 2.3^b kg
FFM (kg) Week 4 ([1]; PP analysis, week 4, mean ± SE): 46.8 ± 1.8 kg
FFM (kg) Week 8 ([1]; PP analysis, week 8, mean ± SE): 46.4 ± 1.6 kg
BF % ES (d) ([1]; PP analysis): −0.34
BM ES (d) ([1]; PP analysis): 0.00
FFM ES (d) ([1]; PP analysis): 0.32
FM ES (d) ([1]; PP analysis): −0.23
BM (kg) Week 4 ([1]; PP analysis, week 4 of TRF + 3 g/d HMB + RT, mean ± SE): 64.2 ± 3.1 kg
BM (kg) Week 8 ([1]; PP analysis, week 8, mean ± SE): 63.7 ± 3.0 kg
BF % Δ (%) ([1]; PP analysis): −8%
BM Δ (%) ([1]; PP analysis): 0%
FFM Δ (%) ([1]; PP analysis): 3%
FM Δ (%) ([1]; PP analysis): −7%
Reduction in BF % at W8 (significance) ([1]; PP analysis, week 8): statistically significant
BM (kg) Δ ([1]; PP analysis): 0.0 kg
FFM (kg) Δ ([1]; PP analysis): 1.4 kg
FM (kg) Δ ([1]; PP analysis): -1.4 kg
BF % Δ ([1]; PP analysis): −2.3%
BF % 4-week effect size (d) ([1]; PP, TRF + 3 g/d Calcium-HMB + RT, n=7): −0.31
BF % 4-week Δ-change ([1]; PP, TRF + 3 g/d Calcium-HMB + RT, n=7, baseline 29.1±2.5, p<0.05): −2.1%
RMR ([2]; ITT, Baseline): 1466 ± 48 kcal/day
RQ ([2]; ITT, Baseline): 0.82 ± 0.02 au
RMR ([2]; ITT, W 8): 1481 ± 44 kcal/day
RMR Δ ([2]; ITT): 15 kcal/day
RMR Δ (%) ([2]; ITT): 1%
RQ Δ ([2]; ITT): −0.03 au
RQ Δ (%) ([2]; ITT): −4%
RMR ES (d) ([2]; ITT): 0.09
RQ ES (d) ([2]; ITT): −0.42
RMR ([2]; PP, Baseline): 1472 ± 61 kcal/day
RQ ([2]; PP, Baseline): 0.81 ± 0.03 au
RMR ([2]; PP, W 8): 1519 ± 57 kcal/day
RQ ([2]; PP, W 8): 0.78 ± 0.02 au
RMR Δ ([2]; PP): 47 kcal/day
RMR Δ (%) ([2]; PP): 3%
RQ Δ ([2]; PP): −0.03 au
RQ Δ (%) ([2]; PP): −4%
RMR ES (d) ([2]; PP): 0.30
RQ ES (d) ([2]; PP): −0.44
Resting metabolic rate change ([2]; versus baseline): +47 kcal/d
Resting metabolic rate change (%) ([2]; versus baseline): 3%

— US20190209501A1, “COMPOSITIONS AND METHODS OF USE OF BETA-HYDROXY-BETA-METHYLBUTYRATE (HMB) […] IN[…]” (Texas Tech University Office of Research Commercialization, priority 2018, published 2019)
